Experiments:
Test in all cases: Kinase selectivity, DiscoverX scanMAX Kinase assay panel (% control)
Type in all cases: binding
[1] = target: T1, kinases of the scanMAX Kinase assay panel (Homo sapiens, UniProt O00141); details: kinase SGK; 1 uM in DMSO
T1 construct: purchased DiscoverX Co. (contract measurement) scanMAX Kinase assay panel
T1 sequence (O00141 1-431): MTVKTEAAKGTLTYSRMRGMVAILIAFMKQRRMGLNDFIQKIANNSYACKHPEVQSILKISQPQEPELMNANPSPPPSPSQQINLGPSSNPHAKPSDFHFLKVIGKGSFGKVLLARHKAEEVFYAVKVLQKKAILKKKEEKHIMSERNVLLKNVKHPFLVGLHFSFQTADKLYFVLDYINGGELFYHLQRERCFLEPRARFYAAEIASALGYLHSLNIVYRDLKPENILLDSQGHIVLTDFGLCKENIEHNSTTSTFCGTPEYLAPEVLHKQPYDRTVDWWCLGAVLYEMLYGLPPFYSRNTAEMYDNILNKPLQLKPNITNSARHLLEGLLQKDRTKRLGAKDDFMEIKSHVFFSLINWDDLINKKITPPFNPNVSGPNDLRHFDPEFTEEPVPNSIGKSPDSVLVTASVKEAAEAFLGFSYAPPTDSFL
Method in brief: (§1)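 Compounds tested at 1 uM against the scanMAX kinase panel. Signal expressed as % control = (compound − positive control)/(DMSO negative control − positive control) × 100, where positive control = 0% and DMSO = 100%; below 35% counted as activity on that kinase.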

[2] = target: T2, kinases of the scanMAX Kinase assay panel (Homo sapiens, UniProt P08069); details: IGF1R; 1 uM
T2 construct: purchased DiscoverX Co. (contract measurement) scanMAX Kinase assay panel
Method in brief: as §1

[3] = target: T3, kinases of the scanMAX Kinase assay panel (Homo sapiens, UniProt Q9BUB5); details: MKNK1; 1 uM
T3 construct: purchased DiscoverX Co. (contract measurement) scanMAX Kinase assay panel
Method in brief: as §1

[4] = target: T4, kinases of the scanMAX Kinase assay panel (Homo sapiens, UniProt O14578); details: CIT; 1 uM
T4 construct: purchased DiscoverX Co. (contract measurement) scanMAX Kinase assay panel
Method in brief: as §1

[5] = target: T5, kinases of the scanMAX Kinase assay panel (Homo sapiens, UniProt Q9UPZ9); details: ICK; 1 uM
T5 construct: purchased DiscoverX Co. (contract measurement) scanMAX Kinase assay panel
T5 sequence (Q9UPZ9 1-632): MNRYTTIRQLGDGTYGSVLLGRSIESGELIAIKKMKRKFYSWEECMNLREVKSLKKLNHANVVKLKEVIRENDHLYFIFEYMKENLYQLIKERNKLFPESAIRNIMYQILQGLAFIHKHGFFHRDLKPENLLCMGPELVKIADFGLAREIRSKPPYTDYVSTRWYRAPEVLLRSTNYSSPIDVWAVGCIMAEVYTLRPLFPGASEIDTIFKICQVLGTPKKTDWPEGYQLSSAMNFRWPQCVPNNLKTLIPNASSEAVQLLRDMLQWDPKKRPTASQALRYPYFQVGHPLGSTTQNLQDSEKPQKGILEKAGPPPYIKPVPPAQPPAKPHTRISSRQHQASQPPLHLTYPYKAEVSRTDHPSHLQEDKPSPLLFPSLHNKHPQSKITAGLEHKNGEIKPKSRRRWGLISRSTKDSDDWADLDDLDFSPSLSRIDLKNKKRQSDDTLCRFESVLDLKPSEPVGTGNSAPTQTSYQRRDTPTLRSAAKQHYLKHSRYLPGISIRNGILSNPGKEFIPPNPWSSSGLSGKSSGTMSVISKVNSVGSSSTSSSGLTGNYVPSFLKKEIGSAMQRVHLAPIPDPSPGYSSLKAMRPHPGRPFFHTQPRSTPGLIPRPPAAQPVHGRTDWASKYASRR
Method in brief: as §1

[6] = target: T6, kinases of the scanMAX Kinase assay panel (Homo sapiens, UniProt O14920); details: IKK-beta; 1 uM
T6 construct: purchased DiscoverX Co. (contract measurement) scanMAX Kinase assay panel
T6 sequence (O14920 1-756): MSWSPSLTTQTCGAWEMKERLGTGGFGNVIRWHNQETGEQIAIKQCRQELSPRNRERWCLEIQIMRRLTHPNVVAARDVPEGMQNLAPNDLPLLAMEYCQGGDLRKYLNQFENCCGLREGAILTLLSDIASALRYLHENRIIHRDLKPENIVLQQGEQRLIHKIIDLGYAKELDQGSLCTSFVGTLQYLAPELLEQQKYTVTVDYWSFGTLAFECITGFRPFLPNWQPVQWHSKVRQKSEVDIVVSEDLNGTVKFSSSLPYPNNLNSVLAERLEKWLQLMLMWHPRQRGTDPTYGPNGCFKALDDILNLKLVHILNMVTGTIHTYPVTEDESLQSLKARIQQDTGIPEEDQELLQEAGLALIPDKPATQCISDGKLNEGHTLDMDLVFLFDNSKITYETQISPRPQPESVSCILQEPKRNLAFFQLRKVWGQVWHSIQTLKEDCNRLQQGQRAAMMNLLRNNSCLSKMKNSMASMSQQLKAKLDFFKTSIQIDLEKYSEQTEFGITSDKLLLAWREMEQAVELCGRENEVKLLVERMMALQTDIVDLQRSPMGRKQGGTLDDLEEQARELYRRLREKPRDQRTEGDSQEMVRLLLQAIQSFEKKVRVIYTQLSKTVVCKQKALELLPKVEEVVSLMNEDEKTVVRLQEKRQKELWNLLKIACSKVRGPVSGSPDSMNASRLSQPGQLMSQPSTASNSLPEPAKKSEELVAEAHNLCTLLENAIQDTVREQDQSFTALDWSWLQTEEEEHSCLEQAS
Method in brief: as §1

T4 sequence (O14578 whole entry): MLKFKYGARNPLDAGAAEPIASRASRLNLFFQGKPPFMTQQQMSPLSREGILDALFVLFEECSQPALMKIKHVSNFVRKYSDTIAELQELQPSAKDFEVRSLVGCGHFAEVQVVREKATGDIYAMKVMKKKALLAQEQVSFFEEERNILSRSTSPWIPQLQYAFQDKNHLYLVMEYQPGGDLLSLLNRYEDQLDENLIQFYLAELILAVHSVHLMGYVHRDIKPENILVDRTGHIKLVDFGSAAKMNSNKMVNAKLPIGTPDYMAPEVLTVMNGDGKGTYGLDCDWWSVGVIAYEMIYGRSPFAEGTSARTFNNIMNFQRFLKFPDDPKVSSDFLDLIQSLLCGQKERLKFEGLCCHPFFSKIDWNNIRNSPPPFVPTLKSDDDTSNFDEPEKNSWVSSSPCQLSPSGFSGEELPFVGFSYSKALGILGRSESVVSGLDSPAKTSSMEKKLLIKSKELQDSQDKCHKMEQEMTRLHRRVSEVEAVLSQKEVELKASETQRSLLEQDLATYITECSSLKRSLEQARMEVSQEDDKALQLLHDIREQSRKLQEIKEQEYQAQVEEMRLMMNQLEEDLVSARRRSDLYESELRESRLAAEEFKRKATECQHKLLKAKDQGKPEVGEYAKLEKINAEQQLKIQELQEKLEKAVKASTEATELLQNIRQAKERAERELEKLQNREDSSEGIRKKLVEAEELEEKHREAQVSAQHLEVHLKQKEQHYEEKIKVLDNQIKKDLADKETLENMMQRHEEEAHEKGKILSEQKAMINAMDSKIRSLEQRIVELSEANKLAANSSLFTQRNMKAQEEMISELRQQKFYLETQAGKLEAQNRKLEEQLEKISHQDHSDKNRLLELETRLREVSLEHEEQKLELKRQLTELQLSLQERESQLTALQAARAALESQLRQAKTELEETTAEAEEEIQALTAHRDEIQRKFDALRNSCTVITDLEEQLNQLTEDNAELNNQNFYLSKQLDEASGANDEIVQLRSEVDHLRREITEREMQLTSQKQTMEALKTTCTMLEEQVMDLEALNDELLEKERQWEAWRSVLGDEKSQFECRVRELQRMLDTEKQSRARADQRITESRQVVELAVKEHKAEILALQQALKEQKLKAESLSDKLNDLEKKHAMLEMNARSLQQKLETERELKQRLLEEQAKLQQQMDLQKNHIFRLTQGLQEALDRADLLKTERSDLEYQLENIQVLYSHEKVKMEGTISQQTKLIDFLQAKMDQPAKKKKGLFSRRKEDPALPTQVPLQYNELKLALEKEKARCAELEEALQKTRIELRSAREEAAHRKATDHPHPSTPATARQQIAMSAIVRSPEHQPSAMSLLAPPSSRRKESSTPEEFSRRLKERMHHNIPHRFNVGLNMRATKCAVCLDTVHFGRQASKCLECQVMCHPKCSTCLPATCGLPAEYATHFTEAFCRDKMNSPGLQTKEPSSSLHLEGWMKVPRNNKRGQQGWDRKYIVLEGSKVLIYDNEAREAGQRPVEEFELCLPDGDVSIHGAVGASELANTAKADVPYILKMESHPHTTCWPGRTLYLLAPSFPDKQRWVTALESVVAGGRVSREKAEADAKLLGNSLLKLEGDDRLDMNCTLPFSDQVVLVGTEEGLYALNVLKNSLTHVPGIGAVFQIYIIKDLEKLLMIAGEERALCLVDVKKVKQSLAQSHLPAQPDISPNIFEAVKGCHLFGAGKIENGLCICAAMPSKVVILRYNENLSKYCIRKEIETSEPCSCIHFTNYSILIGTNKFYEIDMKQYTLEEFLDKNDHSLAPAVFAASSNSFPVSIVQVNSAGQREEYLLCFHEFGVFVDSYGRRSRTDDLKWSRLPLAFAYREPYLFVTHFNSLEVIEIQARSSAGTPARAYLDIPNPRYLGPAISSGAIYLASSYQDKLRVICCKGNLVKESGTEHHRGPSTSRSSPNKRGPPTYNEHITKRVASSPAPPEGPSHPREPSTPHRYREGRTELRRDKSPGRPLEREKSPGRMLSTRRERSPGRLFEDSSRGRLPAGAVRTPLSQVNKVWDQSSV
T2 sequence (P08069 31-1367): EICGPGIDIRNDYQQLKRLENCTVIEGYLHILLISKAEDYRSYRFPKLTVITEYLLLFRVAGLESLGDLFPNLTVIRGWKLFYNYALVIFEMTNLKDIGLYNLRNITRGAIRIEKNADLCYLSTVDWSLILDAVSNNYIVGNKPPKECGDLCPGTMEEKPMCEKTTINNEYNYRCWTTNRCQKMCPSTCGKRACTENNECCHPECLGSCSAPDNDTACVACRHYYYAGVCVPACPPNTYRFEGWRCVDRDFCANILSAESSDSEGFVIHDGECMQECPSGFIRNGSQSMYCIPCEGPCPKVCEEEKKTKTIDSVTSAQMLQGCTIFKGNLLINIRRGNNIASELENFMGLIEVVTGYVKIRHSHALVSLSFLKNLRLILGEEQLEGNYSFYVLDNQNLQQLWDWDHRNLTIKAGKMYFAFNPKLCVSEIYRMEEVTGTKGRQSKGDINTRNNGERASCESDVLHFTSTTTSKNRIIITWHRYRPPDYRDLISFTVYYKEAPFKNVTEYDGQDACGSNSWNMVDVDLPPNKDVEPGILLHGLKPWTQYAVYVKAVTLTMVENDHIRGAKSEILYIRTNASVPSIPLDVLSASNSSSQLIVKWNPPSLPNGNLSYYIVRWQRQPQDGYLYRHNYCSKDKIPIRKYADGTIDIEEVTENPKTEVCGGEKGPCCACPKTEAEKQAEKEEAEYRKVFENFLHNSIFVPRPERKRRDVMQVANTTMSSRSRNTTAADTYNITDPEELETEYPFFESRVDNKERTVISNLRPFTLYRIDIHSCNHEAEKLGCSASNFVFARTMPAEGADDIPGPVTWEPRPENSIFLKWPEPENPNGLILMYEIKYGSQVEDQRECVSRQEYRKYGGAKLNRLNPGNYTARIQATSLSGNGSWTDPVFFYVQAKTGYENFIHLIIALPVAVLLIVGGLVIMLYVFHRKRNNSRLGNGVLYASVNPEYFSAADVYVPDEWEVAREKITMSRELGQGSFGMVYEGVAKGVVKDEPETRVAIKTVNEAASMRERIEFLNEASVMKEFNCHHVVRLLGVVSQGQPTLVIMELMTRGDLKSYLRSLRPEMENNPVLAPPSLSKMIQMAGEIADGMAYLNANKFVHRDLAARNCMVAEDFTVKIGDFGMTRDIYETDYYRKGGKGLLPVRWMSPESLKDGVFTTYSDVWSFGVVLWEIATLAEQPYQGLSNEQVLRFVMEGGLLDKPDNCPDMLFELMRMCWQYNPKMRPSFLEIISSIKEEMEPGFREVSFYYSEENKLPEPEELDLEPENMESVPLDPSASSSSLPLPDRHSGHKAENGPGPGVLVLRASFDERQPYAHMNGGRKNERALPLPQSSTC
T3 sequence (Q9BUB5 whole entry): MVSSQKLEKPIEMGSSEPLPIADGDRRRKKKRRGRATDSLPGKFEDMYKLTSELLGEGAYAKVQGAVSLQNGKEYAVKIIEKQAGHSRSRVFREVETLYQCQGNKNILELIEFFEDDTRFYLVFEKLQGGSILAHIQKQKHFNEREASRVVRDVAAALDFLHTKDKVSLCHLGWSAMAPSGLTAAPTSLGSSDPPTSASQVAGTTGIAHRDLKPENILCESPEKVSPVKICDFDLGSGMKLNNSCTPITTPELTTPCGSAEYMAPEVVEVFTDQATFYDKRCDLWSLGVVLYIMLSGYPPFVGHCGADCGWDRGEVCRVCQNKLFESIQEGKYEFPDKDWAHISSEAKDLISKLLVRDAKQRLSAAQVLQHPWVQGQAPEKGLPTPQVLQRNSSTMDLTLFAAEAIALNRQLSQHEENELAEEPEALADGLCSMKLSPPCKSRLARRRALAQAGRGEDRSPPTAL

SMILES	remaining binding at 1 µM [1]	remaining binding at 1 µM [2]	remaining binding at 1 µM [3]	remaining binding at 1 µM [4]	remaining binding at 1 µM [5]	remaining binding at 1 µM [6]
CNc1nc(Nc2ccc(C(=O)N3CCOCC3)cc2OC)nc2[nH]cc(C#N)c12 [Example 1, 2-((2-methoxy-4-(morpholine-4-carbonyl)phenyl)amino)-4-(methylamino)-7H-pyrrolo[2,3-d]pyrimidine-5-carbonitrile]	48%	82%	62%	86%	73%	75%
CC1(Nc2nc(Nc3cnn([C@H]4CCN(C5COC5)C[C@@H]4F)c3Cl)nc3[nH]cc(C#N)c23)CC1 [Example 52, 2-((5-chloro-1-((3S,4S)-3-fluoro-1-(oxetane-3-yl)piperidine-4-yl)-1H-pyrazole-4-yl)amino)((1-methylcyclopropyl)amino)-7H-pyrrolo[2,3-d]pyrimidine-5-carbonitrile]	18%	19%	100%	76%	71%	9.7%
CCNc1nc(Nc2ccc(C(=O)N3CCC(N4CCOCC4)CC3)cc2OC)nc2[nH]cc(C(F)(F)F)c12 [Example 104, (4-((4-(ethylamino)-5-(trifluoromethyl)-7H-pyrrolo[2,3-d]pyrimidine-2-yl)amino)-3-methoxyphenyl)(4-morpholinopiperidine-1-yl)methanone]	100%	12%	100%	100%	96%	92%

Reference: patent US11208412B2 (DAEGU-GYEONGBUK MEDICAL INNOVATION FOUNDATION, priority 2017, dated 2021)
